Bounds are passed on as bounds.

The values that follow come from paper PMC6273578, “Design, Synthesis and Biological Evaluation of Benzohydrazide Derivatives Containing Dihydropyrazoles as Potential EGFR Kinase Inhibitors” (Molecules, 2016).

For one data set, the system named is A549 cells. The experiment in a line: MTT antiproliferative assay, A549. It is filed as cell-based, human. As to conditions: Homo sapiens, read-out: In vitro antiproliferative activity IC50, A549. On the procedure: (§1) IC50 values of the test compounds against A549, MCF-7, Hela and HepG2 cells were obtained from State Key Laboratory of Pharmaceutical Biotechnology, Nanjing University, and were determined by a standard (MTT)-based colorimetric assay (Beyotime Inst. Biotech., Nanjing, China). Tumor cell lines were grown to mid-log phase and then diluted to […] making sure they were seeded in 96-well plates (Philas, Nanjing, China) at a density of 5 × 10^3–1 × 10^4 cells per well. The outer wells containing 1 × PBS solution of the plate are not used for the assay to avoid the possibility of edge effects. The plate was incubated at 37 °C in a 5% CO2 incubator in DMEM containing 10% fetal bovine serum (FBS, Gibco, Waltham, MA, USA) for 24 h. Then, we added a 100-μL series concentration of drug-containing medium into the wells to maintain the final concentration of drug as 100, 10, 1 and 0.1 μmol/L. After 12 h, cell survival was determined by the addition of a MTT (3-(4,5-dimethylthiazol-2-yl)-2,5-diphenyl trtrazolium bromide) solution (10 μL of 5 mg/mL MTT in 1 × PBS). We waited for 4 h proliferation, discarded the medium and quickly added 150 μL DMSO per well, shaking the plates well for 10 min to ensure complete dissolution. Optical absorbance was measured at 570 nm on a microplate reader (Bio-Rad, Hercules, CA, USA). Survival ratios are expressed in percentages with respect to untreated cells. The experiments were replicated at least three times to verify the methodology reproducibility when using the above-mentioned conditions.
(Tetrazolium assays rely on reduction of a dye to a coloured formazan, in cell work by metabolically active cells.)

The test system of another data set is MCF-7 cells. The experiment in a line: MTT antiproliferative assay, MCF-7. It is filed as cell-based, human. As to conditions: Homo sapiens, MCF7, read-out: In vitro antiproliferative activity IC50, MCF-7. On the procedure: as §1
The test system of the next data set is HeLa cells. The experiment in a line: MTT antiproliferative assay, HeLa. It is filed as cell-based, human. As to conditions: Homo sapiens, read-out: In vitro antiproliferative activity IC50, HeLa. The protocol:
as §1

In another data set the test system is HepG2 cells. Briefly: MTT antiproliferative assay, HepG2. The settings on record: Homo sapiens, read-out: In vitro antiproliferative activity IC50, HepG2. It is filed as cell-based, human. The protocol: as §1
Data set [1] in a line: Cytotoxicity test (MTT) on 293T cells. The settings on record: human, 293T human kidney epithelial cells. The protocol:
The cytotoxic activity in vitro was measured by the colorimetric MTT assay. […] For the cytotoxicity assay, 20 μL of MTT (5 mg/mL) was added per well 4 h before the end of the incubation. After removing the supernatant, 200 μL DMSO was added to dissolve the formazan crystals. The absorbance at λ 570 nm was read on an LX300 Epson Diagnostic microplate reader, untreated cells were used as negative controls.

In data set [2] the target is epidermal growth factor receptor (EGFR) (Homo sapiens, UniProt P00533). Briefly: EGFR kinase inhibition, solid-phase ELISA assay. Background: An ELISA detects its analyte on a solid surface through an enzyme-linked reagent.
Sequence of epidermal growth factor receptor (EGFR) (P00533 25-1210): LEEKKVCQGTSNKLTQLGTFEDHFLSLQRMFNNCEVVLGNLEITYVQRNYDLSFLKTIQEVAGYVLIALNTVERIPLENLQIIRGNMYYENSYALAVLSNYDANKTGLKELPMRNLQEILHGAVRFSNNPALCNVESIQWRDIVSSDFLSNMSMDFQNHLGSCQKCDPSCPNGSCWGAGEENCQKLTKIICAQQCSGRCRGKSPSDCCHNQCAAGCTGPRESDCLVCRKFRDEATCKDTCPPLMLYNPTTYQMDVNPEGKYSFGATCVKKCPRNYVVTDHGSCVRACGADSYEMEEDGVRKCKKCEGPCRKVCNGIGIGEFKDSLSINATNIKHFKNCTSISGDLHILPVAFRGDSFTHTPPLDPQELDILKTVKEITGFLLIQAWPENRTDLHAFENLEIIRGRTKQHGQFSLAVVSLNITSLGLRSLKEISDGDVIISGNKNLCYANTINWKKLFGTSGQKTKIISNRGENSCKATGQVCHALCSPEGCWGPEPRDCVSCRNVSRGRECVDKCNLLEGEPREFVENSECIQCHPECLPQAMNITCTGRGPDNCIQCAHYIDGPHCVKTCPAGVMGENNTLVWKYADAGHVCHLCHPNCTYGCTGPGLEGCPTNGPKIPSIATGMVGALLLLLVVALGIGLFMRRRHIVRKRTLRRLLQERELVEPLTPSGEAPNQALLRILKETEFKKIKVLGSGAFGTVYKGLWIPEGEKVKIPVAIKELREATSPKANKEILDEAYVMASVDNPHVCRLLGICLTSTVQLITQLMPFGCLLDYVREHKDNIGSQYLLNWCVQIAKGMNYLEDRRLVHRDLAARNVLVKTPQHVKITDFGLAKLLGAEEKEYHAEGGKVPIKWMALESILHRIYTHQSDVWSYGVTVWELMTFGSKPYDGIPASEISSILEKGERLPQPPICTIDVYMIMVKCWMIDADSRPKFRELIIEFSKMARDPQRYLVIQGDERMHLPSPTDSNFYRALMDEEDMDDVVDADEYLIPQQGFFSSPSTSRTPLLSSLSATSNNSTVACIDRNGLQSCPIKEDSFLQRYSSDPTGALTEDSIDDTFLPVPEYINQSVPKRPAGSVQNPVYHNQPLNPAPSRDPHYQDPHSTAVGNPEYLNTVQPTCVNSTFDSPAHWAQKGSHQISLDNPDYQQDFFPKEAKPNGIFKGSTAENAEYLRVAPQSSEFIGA
Procedure: All these newly synthesized compounds were evaluated for their inhibitory activities against EGFR kinases using a solid-phase ELISA assay.
EGFR tyrosine kinase activity was determined by an enzyme linked-immunosorbent assay (ELISA) in 96-well plates precoated in a 10 mL reaction volume including 4 mL diluted test compounds, 4 mL substrate and 2 mL ATP. […] The plates were then aspirated and washed twice with 200 mL 0.9% (w/v) NaCl, and incorporation of Pi was determined with an LX300 Epson Diagnostic microplate reader. […] The experiments were replicated at least three times to verify the methodology reproducibility when using the above-mentioned conditions.

As a reminder, the IC50 is the concentration that gives 50% inhibition. In general, CC50 refers to the concentration that lowers cell viability or growth by half. A lower CC50 goes with harm at low concentration. One may read the melting point as the temperature of the solid-liquid transition. Consider `COc1cccc(/C=N/NC(=O)c2ccc(N3N=C(c4cc(OC)c(OC)c(OC)c4)CC3c3ccc4ccccc4c3)cc2)c1` (stereo not shown) [Compound H7, (E)-N′-(3-Methoxybenzylidene)-4-(5-(naphthalen-2-yl)-3-(3,4,5-trimethoxyphenyl)-4,5-dihydro-1H-pyrazol-1-yl)benzohydrazide], for which the melting point fell in the range of 230 to 232 °C. The IC50 with A549 cells amounted to 78.3 µM. The IC50 in the data set with MCF-7 cells came to 95.3 µM. For the same compound, the IC50 in the data set with HeLa cells was over 100 µM. Moreover, the IC50 with HepG2 cells was over 100 µM. Further, it took 92.9 µM to reach half-maximal cytotoxicity in data set [1] (CC50 at 24 h). The IC50 in data set [2] came to 26.9 µM.

For the compound `CCOc1ccc(C2=NN(c3ccc(C(=O)N/N=C/c4cccc(OC)c4)cc3)C(c3ccc4ccccc4c3)C2)cc1` (stereo not shown) [Compound H8, (E)-4-(3-(4-Ethoxyphenyl)-5-(naphthalen-2-yl)-4,5-dihydro-1H-pyrazol-1-yl)-N′-(3-methoxybenzylidene)-benzohydrazide], the melting point lay within 233 to 235 °C. In the data set on A549 cells, the IC50 came to 10.7 µM. Besides, the IC50 in the data set on MCF-7 cells was 15.9 µM. The IC50 in the data set on HeLa cells was determined as 17.1 µM. Besides, the IC50 with HepG2 cells was 19.8 µM. The compound further had a CC50 at 24 h in data set [1] of 79.7 µM. This compound also registered an IC50 in data set [2] of 7.2 µM.

`COc1cccc(/C=N/NC(=O)c2ccc(N3N=C(c4ccccc4F)CC3c3ccc4ccccc4c3)cc2)c1` (stereo not shown) [Compound H9, (E)-4-(3-(2-Fluorophenyl)-5-(naphthalen-2-yl)-4,5-dihydro-1H-pyrazol-1-yl)-N′-(3-methoxybenzylidene)-benzohydrazide]: the melting point fell in the range of 235 to 237 °C. Besides, in the data set on A549 cells, the IC50 amounted to 50.6 µM. Further, the IC50 in the data set on MCF-7 cells came out at 70.4 µM. In addition, the IC50 in the data set on HeLa cells turned out to be 63.8 µM. Besides, the IC50 in the data set on HepG2 cells came to 76.5 µM. This compound returned a half-maximal cytotoxic concentration (CC50) at 24 h in data set [1] of 83.4 µM. Further, half-maximal inhibition in data set [2] (IC50) was put at 16.2 µM.

The compound `COc1cccc(/C=N/NC(=O)c2ccc(N3N=C(c4cccc(F)c4)CC3c3ccc4ccccc4c3)cc2)c1` (stereo not shown) [Compound H10, (E)-4-(3-(3-Fluorophenyl)-5-(naphthalen-2-yl)-4,5-dihydro-1H-pyrazol-1-yl)-N′-(3-methoxybenzylidene)-benzohydrazide] had a melting point of 241 to 243 °C. Also, the IC50 in the data set with A549 cells came out at 58.6 µM. The IC50 with MCF-7 cells came out at 80.1 µM. In addition, the IC50 in the data set on HeLa cells was 84.1 µM. In the data set with HepG2 cells, the IC50 worked out at 92.5 µM. Moreover, in data set [1], the CC50 at 24 h was determined as 95.8 µM. In data set [2], this compound displayed an IC50 of 20 µM.

On to `COc1cccc(/C=N/NC(=O)c2ccc(N3N=C(c4ccc(F)cc4)CC3c3ccc4ccccc4c3)cc2)c1` (stereo not shown) [Compound H11, (E)-4-(3-(4-Fluorophenyl)-5-(naphthalen-2-yl)-4,5-dihydro-1H-pyrazol-1-yl)-N′-(3-methoxybenzylidene)-benzohydrazide], for which the melting point lay within 235 to 237 °C. In the data set on A549 cells, the IC50 was determined as 45.2 µM. Also, the IC50 with MCF-7 cells was determined as 60.8 µM. The IC50 in the data set on HeLa cells amounted to 56.2 µM. In addition, the IC50 in the data set on HepG2 cells came out at 60.9 µM. The compound further came in with a CC50 at 24 h in data set [1] of 86.5 µM. The IC50 in data set [2] was 14.1 µM.

The compound `COc1cccc(/C=N/NC(=O)c2ccc(N3N=C(c4cc(F)cc(F)c4)CC3c3ccc4ccccc4c3)cc2)c1` (stereo not shown) [Compound H12, (E)-4-(3-(3,5-Difluorophenyl)-5-(naphthalen-2-yl)-4,5-dihydro-1H-pyrazol-1-yl)-N′-(3-methoxybenzylidene) benzohydrazide] registered a melting point of 225 to 227 °C. The IC50 in the data set on A549 cells was found to be 41.5 µM. The 50% inhibitory concentration (IC50) with MCF-7 cells was found to be 55.6 µM. In addition, the IC50 in the data set with HeLa cells came to 50.3 µM. The IC50 with HepG2 cells is 52.3 µM. Further, it took 80.2 µM to reach half-maximal cytotoxicity in data set [1] (CC50 at 24 h). The IC50 in data set [2] amounted to 12.8 µM.

`COc1cccc(/C=N/NC(=O)c2ccc(N3N=C(c4cccc(Cl)c4)CC3c3ccc4ccccc4c3)cc2)c1` (stereo not shown) [Compound H13, (E)-4-(3-(3-Chlorophenyl)-5-(naphthalen-2-yl)-4,5-dihydro-1H-pyrazol-1-yl)-N′-(3-methoxybenzylidene)-benzohydrazide] came in with a melting point of 231 to 233 °C. In addition, the IC50 with A549 cells is 35.2 µM. In the data set on MCF-7 cells, the IC50 was 51.3 µM. The IC50 in the data set on HeLa cells is 46.4 µM. Also, the IC50 in the data set with HepG2 cells was 45.4 µM. For the same compound, the cytotoxic concentration (CC50) at 24 h in data set [1] amounted to 93.4 µM. Further, in data set [2], half-maximal inhibition (IC50) required 11.9 µM.

Consider `COc1cccc(/C=N/NC(=O)c2ccc(N3N=C(c4ccc(Cl)cc4)CC3c3ccc4ccccc4c3)cc2)c1` (stereo not shown) [Compound H14, (E)-4-(3-(4-Chlorophenyl)-5-(naphthalen-2-yl)-4,5-dihydro-1H-pyrazol-1-yl)-N′-(3-methoxybenzylidene)-benzohydrazide], for which the melting point was in the range of 236 to 238 °C. For the same compound, the IC50 in the data set on A549 cells was determined as 30.1 µM. The IC50 in the data set on MCF-7 cells stood at 42.5 µM. In addition, the IC50 in the data set on HeLa cells was found to be 37.4 µM. Besides, the IC50 in the data set on HepG2 cells came to 40.2 µM. In data set [1], this compound came in with a CC50 at 24 h of 90.1 µM. Moreover, in data set [2], the IC50 was determined as 10.3 µM.

In turn, `COc1cccc(/C=N/NC(=O)c2ccc(N3N=C(c4ccc(Cl)c(Cl)c4)CC3c3ccc4ccccc4c3)cc2)c1` (stereo not shown) [Compound H15, (E)-4-(3-(3,4-Dichlorophenyl)-5-(naphthalen-2-yl)-4,5-dihydro-1H-pyrazol-1-yl)-N′-(3-methoxy-benzylidene)benzohydrazide] showed a melting point of 234 to 236 °C. In the data set on A549 cells, the IC50 stood at 26.6 µM. Further, in the data set on MCF-7 cells, the IC50 stood at 35.2 µM. Further, the IC50 with HeLa cells was 33.6 µM. Further, the IC50 in the data set with HepG2 cells worked out at 38.9 µM. Besides, in data set [1], the midpoint of cytotoxicity, the CC50 at 24 h, lay at 88.2 µM. For the same compound, half-maximal inhibition in data set [2] (IC50) was put at 9.87 µM.

With `COc1cccc(/C=N/NC(=O)c2ccc(N3N=C(c4ccc(Br)cc4)CC3c3ccc4ccccc4c3)cc2)c1` (stereo not shown) [Compound H16, (E)-4-(3-(4-Bromophenyl)-5-(naphthalen-2-yl)-4,5-dihydro-1H-pyrazol-1-yl)-N′-(3-methoxybenzylidene)-benzohydrazide], the melting point lay in the range of 245 to 247 °C. The IC50 with A549 cells came out at 21.8 µM. The IC50 with MCF-7 cells amounted to 31.9 µM. Besides, in the data set on HeLa cells, the IC50 worked out at 26.5 µM. In the data set with HepG2 cells, the IC50 was 34.2 µM. The compound further came in with a CC50 at 24 h in data set [1] of 81.9 µM. For the same compound, half-maximal inhibition in data set [2] (IC50) was put at 9.01 µM.

Regarding `COc1ccc(/C=N/NC(=O)c2ccc(N3N=C(c4cc(OC)c(OC)c(OC)c4)CC3c3ccc4ccccc4c3)cc2)cc1` (stereo not shown) [Compound H23, (E)-N′-(4-Methoxybenzylidene)-4-(5-(naphthalen-2-yl)-3-(3,4,5-trimethoxyphenyl)-4,5-dihydro-1H-pyrazol-1-yl)benzohydrazide], the melting point was in the range of 237 to 239 °C. Also, in the data set on A549 cells, the IC50 is 75.7 µM. The IC50 in the data set with MCF-7 cells was 93.2 µM. Further, the IC50 with HeLa cells was 94.1 µM. Besides, the IC50 in the data set on HepG2 cells was determined as 89.5 µM. This compound displayed a CC50 at 24 h in data set [1] of 85.8 µM. The compound also showed an IC50 in data set [2] of 24.6 µM.

The compound `CCOc1ccc(C2=NN(c3ccc(C(=O)N/N=C/c4ccc(OC)cc4)cc3)C(c3ccc4ccccc4c3)C2)cc1` (stereo not shown) [Compound H24, (E)-4-(3-(4-Ethoxyphenyl)-5-(naphthalen-2-yl)-4,5-dihydro-1H-pyrazol-1-yl)-N′-(4-methoxybenzylidene)-benzohydrazide] came in with a melting point of 237 to 239 °C. The IC50 in the data set with A549 cells came out at 9.92 µM. The IC50 in the data set on MCF-7 cells turned out to be 13.8 µM. Besides, the IC50 in the data set with HeLa cells stood at 15.3 µM. Besides, the IC50 in the data set on HepG2 cells was found to be 18.6 µM. In addition, in data set [1], the half-maximal cytotoxic concentration (CC50) at 24 h stood at 81.3 µM. In data set [2], this compound showed an IC50 of 6.65 µM.

With `C#Cc1cccc(Nc2ncnc3cc(OCCOC)c(OCCOC)cc23)c1` [Erlotinib, reference compound], the IC50 in the data set on A549 cells was found to be 0.2 µM; in the data set with MCF-7 cells, 0.12 µM; in the data set on HeLa cells it was 0.17 µM; in the data set on HepG2 cells it was 0.1 µM.
